# Source: ChEMBL document CHEMBL4422663, “Suppression of Tumor Growth and Metastases by Targeted Intervention in Urokinase Activity with Cyclic Peptides” (J Med Chem, 2019)
# What was measured:
# [1] = tested on: Lewis lung carcinoma cell line; test: Antimetastatic activity against mouse LLC allografted in mouse assessed as reduction in tumor nodule numbers at 100 mg/kg, ip; format: functional; design: scale not given: the % may be the effect or the level left
# [2] = Drug level in blood of mouse LLC allografted in mouse at 100 mg/kg, ip; format: ADME, organism-based; conditions: in vivo, read-out: Drug uptake
# [3] = tested on: Lewis lung carcinoma cell line; test: Antitumor activity against mouse LLC allografted in C57Bl6/N mouse assessed as inhibition olf tumor growth at 200 mg/kg/day, ip; format: functional; conditions: read-out: TGI
# [4] = target: Urokinase-type plasminogen activator (Homo sapiens, UniProt P00749); test: Inhibition of uPA (unknown origin)
# Plasminogen = Plasminogen (Homo sapiens, UniProt P00747); test: Inhibition of plasmin (unknown origin)
# Plasminogen, sequence (P00747 97-580 limits assumed): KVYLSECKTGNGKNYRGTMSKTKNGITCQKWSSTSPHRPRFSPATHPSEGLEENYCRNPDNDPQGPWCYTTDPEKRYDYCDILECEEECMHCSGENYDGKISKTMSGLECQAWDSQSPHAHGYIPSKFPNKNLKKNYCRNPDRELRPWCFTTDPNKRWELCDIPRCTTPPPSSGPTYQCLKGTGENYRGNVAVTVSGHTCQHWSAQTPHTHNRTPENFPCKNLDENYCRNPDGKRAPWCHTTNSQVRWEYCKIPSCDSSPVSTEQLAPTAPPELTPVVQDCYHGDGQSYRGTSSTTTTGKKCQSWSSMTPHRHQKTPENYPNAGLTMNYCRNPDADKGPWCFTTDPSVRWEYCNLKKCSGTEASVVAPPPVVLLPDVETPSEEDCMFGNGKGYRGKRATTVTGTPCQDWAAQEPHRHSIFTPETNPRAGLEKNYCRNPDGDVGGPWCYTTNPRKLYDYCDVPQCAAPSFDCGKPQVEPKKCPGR
# Plasminogen, sequence (P00747 581-810 limits assumed): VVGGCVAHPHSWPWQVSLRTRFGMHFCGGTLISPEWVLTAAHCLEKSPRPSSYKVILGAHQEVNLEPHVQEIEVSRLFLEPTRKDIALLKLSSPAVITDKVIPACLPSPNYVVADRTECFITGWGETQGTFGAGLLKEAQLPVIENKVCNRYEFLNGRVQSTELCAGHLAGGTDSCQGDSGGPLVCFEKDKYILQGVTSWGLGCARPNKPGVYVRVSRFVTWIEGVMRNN
# Prothrombin = Prothrombin (Homo sapiens, UniProt P00734); test: Inhibition of thrombin (unknown origin)
# Coagulation factor X = Coagulation factor X (Homo sapiens, UniProt P00742); test: Inhibition of factor 10a (unknown origin)
# Coagulation factor X, sequence (P00742 41-179 limits assumed): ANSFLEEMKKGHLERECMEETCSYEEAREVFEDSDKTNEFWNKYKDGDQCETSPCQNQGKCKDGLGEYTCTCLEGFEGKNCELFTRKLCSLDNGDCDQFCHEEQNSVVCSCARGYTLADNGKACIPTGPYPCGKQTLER
# Coagulation factor X, sequence (P00742 235-488 limits assumed): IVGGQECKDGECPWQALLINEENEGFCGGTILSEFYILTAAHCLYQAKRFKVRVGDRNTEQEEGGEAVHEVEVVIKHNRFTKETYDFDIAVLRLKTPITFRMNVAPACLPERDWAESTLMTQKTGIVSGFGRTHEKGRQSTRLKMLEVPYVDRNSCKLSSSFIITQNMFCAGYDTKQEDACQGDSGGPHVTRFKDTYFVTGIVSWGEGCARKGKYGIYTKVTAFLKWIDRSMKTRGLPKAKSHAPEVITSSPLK
# [5] = target: Tissue-type plasminogen activator (Homo sapiens, UniProt P00750); test: Inhibition of tPA (unknown origin)
# Tissue-type plasminogen activator, sequence (P00750 whole entry): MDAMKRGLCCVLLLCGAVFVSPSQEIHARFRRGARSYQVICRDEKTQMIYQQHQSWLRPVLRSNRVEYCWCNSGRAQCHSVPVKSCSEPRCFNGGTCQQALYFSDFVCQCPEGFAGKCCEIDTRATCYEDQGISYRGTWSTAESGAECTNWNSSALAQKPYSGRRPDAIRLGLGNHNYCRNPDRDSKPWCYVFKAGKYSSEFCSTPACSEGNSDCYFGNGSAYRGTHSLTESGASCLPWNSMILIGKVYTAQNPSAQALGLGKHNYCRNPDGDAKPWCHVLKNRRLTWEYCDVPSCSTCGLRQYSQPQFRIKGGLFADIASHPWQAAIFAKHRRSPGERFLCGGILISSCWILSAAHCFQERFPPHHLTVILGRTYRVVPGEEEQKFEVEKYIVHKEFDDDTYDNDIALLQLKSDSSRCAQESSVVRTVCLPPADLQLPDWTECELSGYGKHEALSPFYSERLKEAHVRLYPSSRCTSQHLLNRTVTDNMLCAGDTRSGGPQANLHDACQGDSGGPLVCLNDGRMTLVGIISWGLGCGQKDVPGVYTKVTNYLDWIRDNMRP
# [6] = Antitumor activity against rat BN472 cells implanted in Norwegian BN rat model of orthotopical breast cancer assessed as inhibition of tumor growth at 1 mg/kg/day, sc; format: functional; conditions: read-out: TGI
Compound,Activity [1],concentration [2],inhibition in vivo at 200 mg/kg/day [3],Ki [4],Ki (Plasminogen),Ki (Prothrombin),Ki (Coagulation factor X),Ki [5],inhibition in vivo at 1 mg/kg/day [6]
N=C(N)c1ccc(CNC(=O)[C@H](CO)NC(=O)[C@@H](CO)NS(=O)(=O)Cc2ccccc2)cc1,41.5%,1010 µM,43%,,,,,,
CCOC(=O)N1CCN(C(=O)[C@H](Cc2cccc(C(=N)N)c2)NS(=O)(=O)c2c(C(C)C)cc(C(C)C)cc2C(C)C)CC1,,,,650 nM,1460 nM,500 nM,980 nM,2510 nM,53%
